{
  "source": "patent US12263066B2",
  "about": "“Apparatuses, systems and methods for perforating and aspirating inner ear” (priority 2018, dated 2025)",
  "assay": "Valia-Chien diffusion cell, trans-membrane diffusion of RhoB",
  "format": "in vitro ADME",
  "source_text": "A Valia-Chien cell apparatus separated by an artificial barrier membrane was used to compare the in vitro drug delivery kinetics of the small molecule Rhodamine B delivered via P407 and saline solution, both with and without perforations. The applied methods for measuring trans-membrane diffusion were adapted from the American Association of Pharmaceutical Scientists as well as the Federal Drug Administration recommendations for in vitro percutaneous absorption rate studies (EPA, Recommended Protocol For In Vitro Percutaneous Absorption Rate Studies, Federal Register Notices, 61(65):14773-14778, 1996. Agency Docket: OPPTS-42186A.)\nP407 powder (Spectrum Chemical, Gardena, CA) was mixed with demineralized water and RhoB to create a 0.1 mM RhoB solution in 18% P407 by weight. The resulting mixture was stirred at room temperature and kept overnight in a refrigerator at 3 to 4° C. to facilitate dissolution of the P407 powder. At the chosen P407 concentration, the mixture transitioned into gel upon placement within the room-temperature testing apparatus.\nDiffusion of RhoB through an artificial membrane barrier was performed using 9 mm clear unjacketed Valia-Chien diffusion cells (PermeGear Inc., Hellertown, PA) with 5 mL volumes and flat-ground joints. […] The Valia-Chien diffusion cells 800 were arranged horizontally, mitigating the effects of gravity on particle movement and allowing for active stirring of both the donor 810 and receptor compartments 820 by magnetic mini-stirrers 840 (HI 190M-1, Hanna Instruments, Woonsocket, RI). A 3D-printed adapter 850 was used as a conduit between the chambers 810, 820.\nThe donor chamber 810 was filled with 5.0 mL volumes of: (A) 0.1 mM RhoB in PBS or (B) 0.1 mM RhoB in 18% P407. An additional sample of donor solution was reserved for the calibration of fluorescence detection, as detailed below. Active stirring of the donor chamber 810 was performed for experiments utilizing PBS, but not those utilizing gelified P407. Initial filling of the donor chamber marked time zero for each experiment.\nThe receptor chamber 820 was filled with 5.0 mL of PBS prepared by dissolving 9.6 g of Dulbecco's Phosphate Buffered Saline powder (Sigma-Aldrich) in 1.0 L deionized water. An Eppendorf micropipette was used to withdraw 75 μL of fluid from the receptor chamber every 15 minutes, from 0 min to 165 min, for a total of 12 samples. The collected samples were placed in individual wells of a 96-well plate for further analysis. The withdrawn solution was replaced with 75 μL of PBS to prevent advection of fluid within the system. […] Active stirring of the receptor chamber 820 was performed for all experiments.\nWhatman™ Grade 2 Qualitative Filter Paper with diameter 5.5 cm, thickness 190 μm and pore size 8.0 μm (Whatman Limited, England) was used as an artificial membrane 830 barrier separating the donor and receptor chambers. […] Using an artificial barrier controlled for pore size as well as membrane thickness. The filter paper was cut to fit a custom 3D-printed diffusion cell adapter, which was circumferentially sealed with general-purpose epoxy. Teflon tape was used to prevent leakage between the 3D-printed adapter and the joint, which were secured with a standard Valia-Chien cell clamp. The filter paper was equilibrated in PBS solution for 30 min prior to any contact with donor substance. […]",
  "data": [
    {"smiles": "CCN(CC)c1ccc2c(-c3ccccc3C(=O)O)c3ccc(=[N+](CC)CC)cc-3oc2c1.[Cl-]", "note": "[RhoB, Rhodamine B]", "values": [
      {"measurement": "permeance", "setting": "RhoB in P407, membrane with one 200 μm perforation", "value": "3.0×10^−7 m s^−1"},
      {"measurement": "permeance", "setting": "RhoB in P407, unperforated artificial membrane", "value": "2.2×10^−7 m s^−1"},
      {"measurement": "permeance", "setting": "RhoB in PBS, unperforated artificial membrane", "value": "3.04×10^−6 m s^−1"},
      {"measurement": "diffusion rate in P407 relative to saline (times lower)", "setting": "after the initial burst release", "value": "more than 10 times"},
      {"measurement": "increase in measured permeance", "setting": "saline as solvent, membranes with up to four 100 μm perforations vs unperforated", "value": 1.5, "unit": "fold"}
    ]}
  ]
}
